{"source": "patent US20240300958A1", "about": "“COMPOUNDS AND THE USES AND PHARMACEUTICAL COMPOSITIONS THEREOF” (BEIJING YOUZHUJU NETWORK TECHNOLOGY CO. LTD., priority 2023, published 2024)", "assay_in_all_cases": "Kinase inhibition profile (HTRF / ADP Glo kinase assay)", "format_in_all_cases": "biochemical", "key": {"DCAMKL2": {"target": "DCAMKL2 (Homo sapiens (Human), UniProt Q8N568)", "method": "(§1) HTRF kinase assay: 2×ATP and substrate solution as well as 2× kinase and metal solution were prepared with assay buffer. 25 nL of compound was transferred to 384-well assay plate by Echo 655. After centrifugation, 2.5 μL of 2× kinase/metal ion solution was added to the 384-well assay plate followed by incubation at 25° C. for 10 min. 2.5 μL of 2× substrate and ATP solution was added to the wells followed by incubation at 25° C. for 60 min. 2× XL665 and antibody solution was prepared with assay buffer. 5 μL of kinase detection reagent was added to the wells followed by incubation at 25° C. for 60 min. Fluorescence signals at 620 nm (Cryptate) and 665 nm (XL665) were read with a microtiter plate reader. ADP Glo kinase assay: 2×ATP and substrate solution as well as 2× kinase and metal solution were prepared with assay buffer. 20 nL of compound was transferred to 384-well assay plate by Echo 655. 2 μL of 2× kinase/metal ion solution was added followed by incubation at 25° C. for 10 min in the 384-well assay plate. 2 μL of 2× substrate and ATP solution was added to the wells followed by incubation at 25° C. for 60 min. 4 μL of ADP Glo reagent was added to the wells followed by incubation at 25° C. for 40 min. 8 μL of kinase test reagent was added to the wells followed by incubation at 25° C. for 40 min. The luminescence signals were recorded on a microtiter plate reader. Data analysis: the reaction control (0.5% DMSO) reading was set to 0% inhibition, and the background (10 μM positive control) reading was set to 100% inhibition, then the percent inhibition for each test solution was calculated and the results are shown in Table 2 and FIG. 3."}, "CK1γ3": {"target": "CK1γ3 (Homo sapiens (Human), UniProt Q9Y6M4)", "method": "as §1"}, "JAK3": {"target": "JAK3 (Homo sapiens (Human), UniProt P52333)", "method": "as §1"}, "SYK": {"target": "SYK (Homo sapiens (Human), UniProt P43405)", "method": "as §1"}, "CHK2": {"target": "CHK2 (Homo sapiens (Human), UniProt O96017)", "sequence (O96017 whole entry, species assumed)": "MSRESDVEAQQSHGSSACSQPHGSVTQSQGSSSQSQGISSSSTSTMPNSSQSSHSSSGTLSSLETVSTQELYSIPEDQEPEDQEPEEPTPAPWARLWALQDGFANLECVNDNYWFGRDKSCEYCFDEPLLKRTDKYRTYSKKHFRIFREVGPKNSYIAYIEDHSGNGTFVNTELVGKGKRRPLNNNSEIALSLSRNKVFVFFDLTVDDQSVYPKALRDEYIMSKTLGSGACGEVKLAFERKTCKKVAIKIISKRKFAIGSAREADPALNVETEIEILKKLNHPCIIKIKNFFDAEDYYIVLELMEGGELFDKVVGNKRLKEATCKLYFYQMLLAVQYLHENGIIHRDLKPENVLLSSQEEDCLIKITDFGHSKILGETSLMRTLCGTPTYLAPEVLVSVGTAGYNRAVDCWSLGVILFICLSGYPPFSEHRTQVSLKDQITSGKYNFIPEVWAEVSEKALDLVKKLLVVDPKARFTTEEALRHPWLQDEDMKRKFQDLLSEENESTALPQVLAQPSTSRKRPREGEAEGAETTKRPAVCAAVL", "method": "as §1"}, "EGFR": {"target": "EGFR (Homo sapiens (Human), UniProt P00533)", "sequence (P00533 25-1210, species assumed)": "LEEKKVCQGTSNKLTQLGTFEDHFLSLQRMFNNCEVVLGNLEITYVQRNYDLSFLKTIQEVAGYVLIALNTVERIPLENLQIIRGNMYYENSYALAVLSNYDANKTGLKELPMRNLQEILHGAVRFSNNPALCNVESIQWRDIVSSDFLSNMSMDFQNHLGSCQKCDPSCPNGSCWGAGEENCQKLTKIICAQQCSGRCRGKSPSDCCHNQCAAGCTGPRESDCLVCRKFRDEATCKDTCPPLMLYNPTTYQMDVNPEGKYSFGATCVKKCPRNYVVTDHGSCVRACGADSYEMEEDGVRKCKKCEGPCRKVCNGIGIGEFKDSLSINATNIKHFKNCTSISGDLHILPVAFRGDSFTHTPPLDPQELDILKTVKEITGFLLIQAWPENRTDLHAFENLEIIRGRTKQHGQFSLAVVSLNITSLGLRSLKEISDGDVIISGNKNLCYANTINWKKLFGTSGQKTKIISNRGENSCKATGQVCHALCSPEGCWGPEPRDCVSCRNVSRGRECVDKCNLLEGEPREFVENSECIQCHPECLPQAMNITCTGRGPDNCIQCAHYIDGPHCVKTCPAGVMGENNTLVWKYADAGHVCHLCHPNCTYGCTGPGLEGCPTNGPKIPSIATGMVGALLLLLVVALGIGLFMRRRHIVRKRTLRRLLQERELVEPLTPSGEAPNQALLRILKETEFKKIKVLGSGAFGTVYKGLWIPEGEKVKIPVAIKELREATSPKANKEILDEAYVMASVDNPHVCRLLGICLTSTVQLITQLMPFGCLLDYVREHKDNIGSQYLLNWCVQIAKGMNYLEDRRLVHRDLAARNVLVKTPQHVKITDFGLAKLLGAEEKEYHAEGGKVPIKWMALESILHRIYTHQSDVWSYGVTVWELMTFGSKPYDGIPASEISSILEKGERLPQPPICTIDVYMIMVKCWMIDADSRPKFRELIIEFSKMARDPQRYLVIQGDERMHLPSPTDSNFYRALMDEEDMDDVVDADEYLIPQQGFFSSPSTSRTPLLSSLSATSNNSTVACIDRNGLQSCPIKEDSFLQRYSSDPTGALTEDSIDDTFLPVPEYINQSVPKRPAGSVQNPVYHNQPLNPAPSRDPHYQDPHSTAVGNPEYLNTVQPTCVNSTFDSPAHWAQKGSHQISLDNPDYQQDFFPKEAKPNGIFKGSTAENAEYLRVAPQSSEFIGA", "method": "as §1"}, "TIE2": {"target": "TIE2 (Homo sapiens (Human), UniProt Q02763)", "method": "as §1"}, "CK1α": {"target": "CK1α (Homo sapiens (Human), UniProt P48729)", "sequence (P48729 whole entry)": "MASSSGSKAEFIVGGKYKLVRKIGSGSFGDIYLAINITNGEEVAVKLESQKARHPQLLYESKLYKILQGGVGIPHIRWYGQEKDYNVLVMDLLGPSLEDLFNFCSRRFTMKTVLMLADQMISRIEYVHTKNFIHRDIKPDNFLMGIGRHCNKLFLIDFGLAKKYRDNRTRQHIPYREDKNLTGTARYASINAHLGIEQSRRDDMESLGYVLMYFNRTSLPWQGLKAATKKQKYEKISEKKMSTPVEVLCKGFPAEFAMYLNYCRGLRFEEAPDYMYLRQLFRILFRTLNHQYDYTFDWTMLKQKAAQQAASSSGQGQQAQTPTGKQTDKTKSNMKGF", "method": "as §1"}, "EPHB4": {"target": "EPHB4 (Homo sapiens (Human), UniProt P54760)", "method": "as §1"}, "FGFR1": {"target": "FGFR1 (Homo sapiens (Human), UniProt P11362)", "method": "as §1"}, "CDK18/CyclinY": {"target": "CDK18/CyclinY (Homo sapiens (Human), UniProt Q07002)", "sequence (Q07002 whole entry, species assumed)": "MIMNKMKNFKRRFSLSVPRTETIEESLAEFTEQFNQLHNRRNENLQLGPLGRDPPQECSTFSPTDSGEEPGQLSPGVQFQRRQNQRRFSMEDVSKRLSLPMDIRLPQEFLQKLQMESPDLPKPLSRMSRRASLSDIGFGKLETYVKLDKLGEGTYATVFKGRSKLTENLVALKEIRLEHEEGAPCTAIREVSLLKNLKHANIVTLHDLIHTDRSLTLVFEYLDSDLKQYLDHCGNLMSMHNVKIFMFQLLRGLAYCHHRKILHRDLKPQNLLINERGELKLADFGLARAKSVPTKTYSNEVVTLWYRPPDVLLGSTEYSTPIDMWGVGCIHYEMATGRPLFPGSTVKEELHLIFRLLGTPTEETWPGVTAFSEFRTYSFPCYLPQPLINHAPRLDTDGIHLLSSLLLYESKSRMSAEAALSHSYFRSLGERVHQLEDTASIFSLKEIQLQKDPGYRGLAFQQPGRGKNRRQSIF", "sequence (Q8ND76 whole entry partner, species assumed)": "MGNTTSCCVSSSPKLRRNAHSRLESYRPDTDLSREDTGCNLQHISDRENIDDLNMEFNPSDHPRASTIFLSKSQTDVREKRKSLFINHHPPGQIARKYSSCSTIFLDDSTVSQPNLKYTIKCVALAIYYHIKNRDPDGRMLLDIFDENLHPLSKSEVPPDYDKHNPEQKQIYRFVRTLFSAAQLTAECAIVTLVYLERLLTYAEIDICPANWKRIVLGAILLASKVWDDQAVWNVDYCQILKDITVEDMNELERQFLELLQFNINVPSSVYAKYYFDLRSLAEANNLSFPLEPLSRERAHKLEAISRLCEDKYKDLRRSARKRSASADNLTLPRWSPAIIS", "method": "as §1"}, "RSK1": {"target": "RSK1 (Homo sapiens (Human), UniProt Q15418)", "sequence (Q15418 whole entry, species assumed)": "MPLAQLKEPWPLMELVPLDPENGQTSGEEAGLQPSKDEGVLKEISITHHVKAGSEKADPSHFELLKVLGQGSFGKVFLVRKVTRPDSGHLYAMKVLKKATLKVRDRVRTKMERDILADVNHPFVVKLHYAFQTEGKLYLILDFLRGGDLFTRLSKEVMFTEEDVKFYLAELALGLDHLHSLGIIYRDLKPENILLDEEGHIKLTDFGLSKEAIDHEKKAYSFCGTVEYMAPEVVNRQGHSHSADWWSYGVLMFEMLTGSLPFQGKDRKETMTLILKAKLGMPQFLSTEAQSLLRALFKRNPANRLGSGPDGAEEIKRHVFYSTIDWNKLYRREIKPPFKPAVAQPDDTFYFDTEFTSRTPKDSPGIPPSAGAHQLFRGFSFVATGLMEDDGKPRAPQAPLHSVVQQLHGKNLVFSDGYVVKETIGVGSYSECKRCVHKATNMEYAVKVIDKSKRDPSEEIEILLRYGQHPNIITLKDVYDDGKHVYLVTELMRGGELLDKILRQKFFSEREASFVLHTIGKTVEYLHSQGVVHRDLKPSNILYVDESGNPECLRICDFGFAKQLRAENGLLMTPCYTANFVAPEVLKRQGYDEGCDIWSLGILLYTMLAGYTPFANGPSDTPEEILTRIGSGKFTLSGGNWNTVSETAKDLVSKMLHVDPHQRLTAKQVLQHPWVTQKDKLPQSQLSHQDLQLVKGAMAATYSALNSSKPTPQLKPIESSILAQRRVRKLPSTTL", "method": "as §1"}, "HIPK1": {"target": "HIPK1 (Homo sapiens (Human), UniProt Q86Z02)", "method": "as §1"}, "JNK2": {"target": "JNK2 (Homo sapiens (Human), UniProt P45984)", "method": "as §1"}, "NEK1": {"target": "NEK1 (Homo sapiens (Human), UniProt Q96PY6)", "sequence (Q96PY6 whole entry, species assumed)": "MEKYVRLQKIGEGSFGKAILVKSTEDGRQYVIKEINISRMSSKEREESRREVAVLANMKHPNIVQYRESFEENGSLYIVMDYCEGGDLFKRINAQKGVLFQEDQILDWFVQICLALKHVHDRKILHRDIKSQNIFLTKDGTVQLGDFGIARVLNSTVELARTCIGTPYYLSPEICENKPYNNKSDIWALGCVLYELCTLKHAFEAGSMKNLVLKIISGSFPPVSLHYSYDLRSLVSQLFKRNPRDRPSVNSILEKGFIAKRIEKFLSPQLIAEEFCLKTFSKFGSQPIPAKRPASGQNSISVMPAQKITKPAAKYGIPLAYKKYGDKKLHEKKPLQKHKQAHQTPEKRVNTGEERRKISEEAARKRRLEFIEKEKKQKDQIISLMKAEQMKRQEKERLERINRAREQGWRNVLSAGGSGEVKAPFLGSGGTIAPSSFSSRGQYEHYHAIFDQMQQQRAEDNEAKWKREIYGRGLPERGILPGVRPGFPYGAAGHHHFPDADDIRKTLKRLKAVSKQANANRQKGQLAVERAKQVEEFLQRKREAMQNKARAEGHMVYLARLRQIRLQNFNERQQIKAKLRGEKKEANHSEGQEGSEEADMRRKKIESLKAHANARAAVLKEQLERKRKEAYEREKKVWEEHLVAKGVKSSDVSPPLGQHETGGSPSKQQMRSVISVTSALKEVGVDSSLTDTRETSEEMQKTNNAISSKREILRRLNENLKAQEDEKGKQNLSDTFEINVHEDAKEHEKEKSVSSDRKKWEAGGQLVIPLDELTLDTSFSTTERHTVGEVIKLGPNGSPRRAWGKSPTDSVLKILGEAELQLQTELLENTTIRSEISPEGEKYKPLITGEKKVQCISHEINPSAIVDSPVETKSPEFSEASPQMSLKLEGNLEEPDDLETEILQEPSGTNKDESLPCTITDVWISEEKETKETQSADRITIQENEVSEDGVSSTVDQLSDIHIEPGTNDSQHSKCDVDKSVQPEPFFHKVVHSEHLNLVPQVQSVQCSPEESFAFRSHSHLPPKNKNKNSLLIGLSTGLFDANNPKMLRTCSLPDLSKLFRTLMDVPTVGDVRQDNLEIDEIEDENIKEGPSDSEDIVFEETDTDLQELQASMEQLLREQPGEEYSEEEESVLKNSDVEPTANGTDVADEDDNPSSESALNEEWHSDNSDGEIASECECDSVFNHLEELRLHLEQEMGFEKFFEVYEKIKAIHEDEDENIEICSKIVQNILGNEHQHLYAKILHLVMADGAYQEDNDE", "method": "as §1"}, "CDK5/p35NCK": {"target": "CDK5/p35NCK (Homo sapiens (Human), UniProt Q00535)", "method": "as §1"}, "PLK1": {"target": "PLK1 (Homo sapiens (Human), UniProt P53350)", "method": "as §1"}, "CHK1": {"target": "CHK1 (Homo sapiens (Human), UniProt O14757)", "method": "as §1"}, "[1]": {"details": "1 uM Compound C1, read-out: % Inhibition (First measurement)"}, "[2]": {"details": "1 uM Compound C1, read-out: % Inhibition (Second measurement)"}, "[3]": {"details": "1 uM Compound C1, read-out: Average inhibition (%)"}}, "note": "Read-outs that look alike come from different tables or passages of the source."}
{"compound": "Cc1ccc(C(=O)Nc2ccccn2)cc1C#Cc1cnc2cc(C3=CCCCC3)cnn12", "note": "[Compound C1, 3-{2-[7-(cyclohex-1-en-1-yl)imidazo[1,2-b]pyridazin-3-yl]ethynyl}-4-methyl-N-(pyridin-2-yl)benzamide]", "values": [{"measurement": "inhibition at 1 µM", "setting": "DCAMKL2; [1]", "result": -8.91, "unit": "%"}, {"measurement": "inhibition at 1 µM", "setting": "DCAMKL2; [2]", "result": -8.39, "unit": "%"}, {"measurement": "inhibition at 1 µM", "setting": "DCAMKL2; [3]", "result": -8.65, "unit": "%"}, {"measurement": "inhibition at 1 µM", "setting": "CK1γ3; [1]", "result": -7.05, "unit": "%"}, {"measurement": "inhibition at 1 µM", "setting": "CK1γ3; [2]", "result": 1.91, "unit": "%"}, {"measurement": "inhibition at 1 µM", "setting": "CK1γ3; [3]", "result": -2.57, "unit": "%"}, {"measurement": "inhibition at 1 µM", "setting": "JAK3; [1]", "result": -1.28, "unit": "%"}, {"measurement": "inhibition at 1 µM", "setting": "JAK3; [2]", "result": 2.46, "unit": "%"}, {"measurement": "inhibition at 1 µM", "setting": "JAK3; [3]", "result": 0.59, "unit": "%"}, {"measurement": "inhibition at 1 µM", "setting": "SYK; [1]", "result": 5.21, "unit": "%"}, {"measurement": "inhibition at 1 µM", "setting": "SYK; [2]", "result": -2.04, "unit": "%"}, {"measurement": "inhibition at 1 µM", "setting": "SYK; [3]", "result": 1.59, "unit": "%"}, {"measurement": "inhibition at 1 µM", "setting": "CHK2; [1]", "result": 0.35, "unit": "%"}, {"measurement": "inhibition at 1 µM", "setting": "CHK2; [2]", "result": 7.34, "unit": "%"}, {"measurement": "inhibition at 1 µM", "setting": "CHK2; [3]", "result": 3.85, "unit": "%"}, {"measurement": "inhibition at 1 µM", "setting": "EGFR; [1]", "result": -6.86, "unit": "%"}, {"measurement": "inhibition at 1 µM", "setting": "EGFR; [2]", "result": 1.78, "unit": "%"}, {"measurement": "inhibition at 1 µM", "setting": "EGFR; [3]", "result": -2.54, "unit": "%"}, {"measurement": "inhibition at 1 µM", "setting": "TIE2; [1]", "result": -5.65, "unit": "%"}, {"measurement": "inhibition at 1 µM", "setting": "TIE2; [2]", "result": 6.2, "unit": "%"}, {"measurement": "inhibition at 1 µM", "setting": "TIE2; [3]", "result": 0.28, "unit": "%"}, {"measurement": "inhibition at 1 µM", "setting": "CK1α; [1]", "result": 5.8, "unit": "%"}, {"measurement": "inhibition at 1 µM", "setting": "CK1α; [2]", "result": -5.89, "unit": "%"}, {"measurement": "inhibition at 1 µM", "setting": "CK1α; [3]", "result": -0.04, "unit": "%"}, {"measurement": "inhibition at 1 µM", "setting": "EPHB4; [1]", "result": 3.8, "unit": "%"}, {"measurement": "inhibition at 1 µM", "setting": "EPHB4; [2]", "result": -8.27, "unit": "%"}, {"measurement": "inhibition at 1 µM", "setting": "EPHB4; [3]", "result": -2.24, "unit": "%"}, {"measurement": "inhibition at 1 µM", "setting": "FGFR1; [1]", "result": 0.18, "unit": "%"}, {"measurement": "inhibition at 1 µM", "setting": "FGFR1; [2]", "result": -18.2, "unit": "%"}, {"measurement": "inhibition at 1 µM", "setting": "FGFR1; [3]", "result": -9.02, "unit": "%"}, {"measurement": "inhibition at 1 µM", "setting": "CDK18/CyclinY; [1]", "result": 18, "unit": "%"}, {"measurement": "inhibition at 1 µM", "setting": "CDK18/CyclinY; [2]", "result": 2.55, "unit": "%"}, {"measurement": "inhibition at 1 µM", "setting": "CDK18/CyclinY; [3]", "result": 10.3, "unit": "%"}, {"measurement": "inhibition at 1 µM", "setting": "RSK1; [1]", "result": 0.73, "unit": "%"}, {"measurement": "inhibition at 1 µM", "setting": "RSK1; [2]", "result": -7.9, "unit": "%"}, {"measurement": "inhibition at 1 µM", "setting": "RSK1; [3]", "result": -3.59, "unit": "%"}, {"measurement": "inhibition at 1 µM", "setting": "HIPK1; [1]", "result": 6.91, "unit": "%"}, {"measurement": "inhibition at 1 µM", "setting": "HIPK1; [2]", "result": 4.17, "unit": "%"}, {"measurement": "inhibition at 1 µM", "setting": "HIPK1; [3]", "result": 5.54, "unit": "%"}, {"measurement": "inhibition at 1 µM", "setting": "JNK2; [1]", "result": 9.39, "unit": "%"}, {"measurement": "inhibition at 1 µM", "setting": "JNK2; [2]", "result": 9.07, "unit": "%"}, {"measurement": "inhibition at 1 µM", "setting": "JNK2; [3]", "result": 9.23, "unit": "%"}, {"measurement": "inhibition at 1 µM", "setting": "NEK1; [1]", "result": 14.6, "unit": "%"}, {"measurement": "inhibition at 1 µM", "setting": "NEK1; [2]", "result": 8.97, "unit": "%"}, {"measurement": "inhibition at 1 µM", "setting": "NEK1; [3]", "result": 11.8, "unit": "%"}, {"measurement": "inhibition at 1 µM", "setting": "CDK5/p35NCK; [1]", "result": 31.2, "unit": "%"}, {"measurement": "inhibition at 1 µM", "setting": "CDK5/p35NCK; [2]", "result": 31.2, "unit": "%"}, {"measurement": "inhibition at 1 µM", "setting": "CDK5/p35NCK; [3]", "result": 31.2, "unit": "%"}, {"measurement": "inhibition at 1 µM", "setting": "PLK1; [1]", "result": 24.1, "unit": "%"}, {"measurement": "inhibition at 1 µM", "setting": "PLK1; [2]", "result": 20.6, "unit": "%"}, {"measurement": "inhibition at 1 µM", "setting": "PLK1; [3]", "result": 22.4, "unit": "%"}, {"measurement": "inhibition at 1 µM", "setting": "CHK1; [1]", "result": -10.6, "unit": "%"}, {"measurement": "inhibition at 1 µM", "setting": "CHK1; [2]", "result": -13.6, "unit": "%"}, {"measurement": "inhibition at 1 µM", "setting": "CHK1; [3]", "result": -12.1, "unit": "%"}]}
